Results taken from US10918108B2, “Synergistic herbicidal composition” (JIANGSU ROTAM CHEMISTRY CO., LTD, priority 2016, dated 2021).

System: gramineous weeds, broadleaf weeds and sedge weeds
Test: Weed control efficacy, greenhouse pot test, survival rate compared with Colby value (Table 1)
Type: in vivo
From the text: The desired efficacy of the combination of three active compounds can be calculated through “Colby formula” as follows (S. R. Colby, “Calculating Synergistic and Antagonistic Responses of Herbicide Combinations, Weeds 1967, 15, 20-22): if
A is the activity of active compound A when used in an amount of mg/ha or concentrate of mppm, expressed as a percentage of untreated control;
B is the activity of active compound B when used in an amount of ng/ha or concentrate of nppm, expressed as a percentage of untreated control;
C is the activity of active compound C when used in an amount of hg/ha or concentrate of hppm, expressed as a percentage of untreated control;
E0 is the anticipated activity of active compounds A, B and C when used in an amount of m, n, h g/ha or concentrate of m, n, h ppm, E0=A×B×C/(100^(N-1)) N=3;
If the observed actual activity E is greater than the anticipated activity (E0), then the composition has synergistic effect.
If the observed actual efficiency of weed control (E) through the biology test is greater than the anticipated value (E0) as calculated via Colby's equation, then it represents that the efficacy of herbicidal composition is greater than the sum of efficacy of each component, which means the composition has synergistic effect.
Use stem and leaf treatment for potted grown plant(NY/T 1155.4-2006): fill a plastic pot (6 cm height, 9 cm diameter) with a quantity of soil and sow 15 to 20 seeds of monocotyledonous weeds and dicotyledonous weeds in the plastic pot, cover it with 0.5 to 1 cm thick of fine soil and then put it in greenhouse for cultivation. When weeds grow to the 2 to 4 leave stage, conduct the stem and leaf spray treatment with 1 mL herbicidal solution on each pot and repeat four times for each treatment and leave some pots untreated as control group. Keep the treated pots in a greenhouse for cultivation and observe the growing status of target weeds periodically. Conduct the visual test on the target weeds regarding the damage symptoms and growth inhibition effect after 21 days. Weigh up the fresh weight above the ground or plant fresh weight and evaluate the toxicity of the herbicidal formulation on target weeds based on the fresh weight inhibition rate of the target.
Prepare the following formulations according to specific weight percentages: 1. Pyroxasulfone; 2. Mesotrione; 3 Atrazine; 4. Pyroxasulfone+Mesotrione; 5. Pyroxasulfone+Atrazine; 6. Mesotrione+Atrazine; 7. Pyroxasulfone+Mesotrione+Atrazine. After that, dilute above formulations with water to obtain diluted formulations.
Conduct visual assessment the damage symptom and growth inhibition status of target weeds after 21 days. Weigh up the fresh weight above the ground and calculate the inhibition rate of fresh weight (%).
Anticipated effects of the special combined three active components can be calculated through so called “Colby formula”. If the actual efficiency of weed control observed during the biology test exceeds the anticipated value […] calculated by Colby's formula, then it represents that the efficacy of herbicidal composition is greater than the sum of efficacy of each component, which means the composition has synergistic effect.
The synergistic herbicidal composition of present invention has conducted test on the following important harmful plants (gramineous weeds, broadleaf weeds, sedge weeds) with wide herbicidal spectrum: Echinochloa oryzicola, Digitaria spp., Stellaria media, Amaranthus retroflexus, Fallopia(ex Polygonum) Convolvulus, Abuthilon theophrasti, Sagittariatrifolia, Oriental Waterplantain Rhizome, Herb of Pygmy Arrowhead, Monochoria korsakowii, Lindernia procumbens, Solanum nigrum L., Scirpus juncoides Roxb, Cyperus difformis L., Chenopodium alum L., Avena fatua L. and Galium aparine L. var. tenerum Gren. et (Godr.) Rebb.

| Structure (SMILES) | Actual survival rate (%) (application rate 1 g/ha) | Actual survival rate (%) (application rate 5 g/ha) | Actual survival rate (%) (application rate 10 g/ha) | Actual survival rate (%) (application rate 25 g/ha) | Actual survival rate (%) (application rate 50 g/ha) | Actual survival rate (%) (application rate 100 g/ha) |
| --- | --- | --- | --- | --- | --- | --- |
| Cn1nc(C(F)(F)F)c(CS(=O)(=O)C2=NOC(C)(C)C2)c1OC(F)F [Pyroxasulfone, 3-[5-(difluoromethoxy)-1-methyl-3-(trifluoromethyl)pyrazol-4-ylmethylsulfonyl]-4,5-dihydro-5,5-dimethyl-1,2-oxazole] | 89% | 78% | 60% |  |  |  |
| CS(=O)(=O)c1ccc(C(=O)C2C(=O)CCCC2=O)c([N+](=O)[O-])c1 [Mesotrione, 2-(4-mesyl-2-nitrobenzoyl)cyclohexane-1,3-dione] | 100% |  |  | 87% | 74% |  |
| CCNc1nc(Cl)nc(NC(C)C)n1 [Atrazine, 2-chloro-4-ethylamino-6-isopropylamino-1,3,5-triazine] | 100% |  |  |  | 100% | 67% |
